In patent publication US10920506B2, “Methods for wellbore milling operations” (STEP ENERGY SERVICES LTD., priority 2018, dated 2021):

Assays:
[1] = IBDU dissolution time with citric acid accelerator (Accelerator HT); format: physicochemical; details: 2 bag pill, 45 kg/m3 IBDU in water or brine
Source text: (§1) Operations: • When milling in an underpressured well (i.e. hydrostatic pressure is greater than bottom hole pressure), or when there are indications of possible or actual lost circulation. • Add two bags of 100 Mesh IBDU such as STEPvert LT™ available from STEP Energy Services Ltd. to fluid in a displacement tank (45 kg/m^3), engage agitation paddle to maximum RPM (if paddle is not spinning fast enough to mix fluid, increase paddle speed) to ensure mixing. Continue mixing or, as noted above, displace while IBDU is added. • To avoid the IBDU settling out prior to arriving downhole, adjust the fluid if necessary to increase the carrying capacity of the fluid such that solid IBDU is able to remain suspended for the period of time it takes to get downhole. This may be achieved by pump rate and/or addition of viscosifiers. Thus, to better suspend solids: • A gelling agent is added: For example liquid gel hydroxyethyl cellulose 5 L/m^3 (2 kg/m^3 if dry gel) is added to the displacement tank with a target hydration time of 3 minutes; and/or • Slowly pour IBDU into the mixing tub while displacing to ensure no product settles out. • Add a degradation accelerator if needed. Consider Table 1 where IBDU solubility is summarized with and without a citric acid accelerator based on 45 kg/m3 loading of IBDU in water or brine:
• Generally if the formation temperature is less than 90° C., use a degradation accelerator, such as a resin coated citric acid such as Accelerator HT™ available from STEP Energy Services Ltd. The citric acid reduces pH in order to reduce degradation time of the IBDU. The resin coating ensures that the citric acid substantially will not begin to act until it reaches formation temperature. The resin breaks down to expose the acid and the acid then reduces pH and expedites degradation. • The pill of the IBDU, possibly including degradation accelerator, is launched. If a twin pump is employed, pump only through one fluid end and isolate the idle side. This ensures diverter only enters one side of plumbing. This is an operational efficiency, where only one fluid end is exposed to diverter in case it collects in large quantities and holds a valve and seat open. By always keeping one side “clean” (no solids) operational risks are mitigated. • Maintain a minimum rate of at least about 0.2 m^3/min or possibly about 0.4 m^3/min through the single fluid end (higher rate is better to aid in carrying solids). If fluid is comingled with gas such as nitrogen, lower rates may be used. […] This ensures the fluid end has been properly flushed. • Track volume from when pill enters the coil to when it is expected to reach open formation. Record the time that each pill reaches formation/exits coil BHA on treatment report (include surface iron in volume calculation). In case a large pressure event occurs when the pill exits the downhole pump, only one pill is to be inside coil at any given time.

[2] = IBDU solubility without accelerator, 2 bag STEPvert LT diversion pill in water or brine; format: physicochemical; details: 45 kg/m3 loading of IBDU in water or brine
Source text: as §1, with “brine: […]” for “brine:”

[3] = 50° C., Accelerator HT Loading 5 kg
[4] = 60° C., Accelerator HT Loading 4 kg
[5] = 70° C., Accelerator HT Loading 2 kg
[6] = 80° C., Accelerator HT Loading 1 kg
[7] = 90° C., Accelerator HT Loading 0 kg

50% Dissolution Time [1, 3]: 1.5 days
100% Dissolution Time [1, 3]: 5 days
50% Dissolution Time [1, 4]: 1 days
100% Dissolution Time [1, 4]: 3 days
50% Dissolution Time [1, 5]: 1 days
100% Dissolution Time [1, 5]: 2 days
50% Dissolution Time [1, 6]: 1 days
100% Dissolution Time [1, 6]: 2 days
50% Dissolution Time [1, 7]: 0.33 days
100% Dissolution Time [1, 7]: 1 days
No Accelerator Solubility, % 24 Hours ([2]; 50° C.): 14%
No Accelerator Solubility, % 48 Hours ([2]; 50° C.): 20%
No Accelerator Solubility, % 96 Hours ([2]; 50° C.): 32%
No Accelerator Solubility, % 24 Hours ([2]; 60° C.): 18%
No Accelerator Solubility, % 48 Hours ([2]; 60° C.): 24%
No Accelerator Solubility, % 96 Hours ([2]; 60° C.): 35%
No Accelerator Solubility, % 24 Hours ([2]; 70° C.): 32%
No Accelerator Solubility, % 48 Hours ([2]; 70° C.): 35%
No Accelerator Solubility, % 96 Hours ([2]; 70° C.): 51%
No Accelerator Solubility, % 24 Hours ([2]; 80° C.): 51%
No Accelerator Solubility, % 48 Hours ([2]; 80° C.): 96%
No Accelerator Solubility, % 96 Hours ([2]; 80° C.): 98%
No Accelerator Solubility, % 24 Hours ([2]; 90° C.): 89%
No Accelerator Solubility, % 48 Hours ([2]; 90° C.): 96%
No Accelerator Solubility, % 96 Hours ([2]; 90° C.): 98%
Compound: CC(C)C(NC(N)=O)NC(N)=O [STEPvert LT, isobutylidene diurea]
